Consider 16 compounds from patent US8846909B2, “Bicyclic heteroaryl kinase inhibitors and methods of use” (University of Rochester, priority 2010, dated 2014).

Each structure is given as a SMILES string.

The target of this test is T1, MLK3 (Homo sapiens, UniProt Q16584).
T1 construct: purchased Dundee DU8313
Description: Radiometric filter plate MLK3 assay. Note: 2 µM cold ATP (Km). Conditions: read-out: MK3 IC50. Format: biochemical. The procedure:
After a twenty minute incubation, the reactions were washed through filter plates and read on a scintillation counter. Results are shown in Table 10 below, in which +++ indicates ≦0.1 μM, ++ indicates >0.1 μM and ≦1 μM, and + indicates >1 μM.

T1 sequence (Q16584 whole entry): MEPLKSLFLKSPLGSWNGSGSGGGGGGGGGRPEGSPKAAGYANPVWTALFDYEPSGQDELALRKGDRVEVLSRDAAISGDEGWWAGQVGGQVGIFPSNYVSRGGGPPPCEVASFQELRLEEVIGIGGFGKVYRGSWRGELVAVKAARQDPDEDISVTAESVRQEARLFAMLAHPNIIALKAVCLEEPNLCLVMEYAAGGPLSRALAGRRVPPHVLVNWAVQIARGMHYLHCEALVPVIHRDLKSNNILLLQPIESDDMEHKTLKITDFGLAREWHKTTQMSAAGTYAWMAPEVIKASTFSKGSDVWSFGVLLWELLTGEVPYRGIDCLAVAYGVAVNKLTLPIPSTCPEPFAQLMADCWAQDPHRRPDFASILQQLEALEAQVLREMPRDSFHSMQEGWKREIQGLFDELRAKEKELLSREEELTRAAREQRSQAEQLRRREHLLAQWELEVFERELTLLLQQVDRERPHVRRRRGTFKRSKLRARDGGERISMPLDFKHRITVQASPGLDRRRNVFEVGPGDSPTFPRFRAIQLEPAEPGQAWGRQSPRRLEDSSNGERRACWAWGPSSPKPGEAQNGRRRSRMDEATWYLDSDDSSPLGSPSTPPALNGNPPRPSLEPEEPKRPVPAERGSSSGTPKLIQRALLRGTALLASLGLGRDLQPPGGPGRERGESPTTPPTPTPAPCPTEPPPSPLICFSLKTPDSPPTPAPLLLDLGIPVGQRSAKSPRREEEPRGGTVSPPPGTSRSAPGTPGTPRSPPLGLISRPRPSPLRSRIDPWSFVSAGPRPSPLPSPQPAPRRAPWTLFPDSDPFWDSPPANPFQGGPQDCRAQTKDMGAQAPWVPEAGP

For the compound `CN1CCN(c2cc(-c3cnc4[nH]c(=O)n(-c5ccc6[nH]ccc6c5)c4n3)ccn2)CC1` [Example 66, 1-(1H-indol-5-yl)-6-(2-(4-methylpiperazin-1-yl)pyridin-4-yl)-1H-imidazo[4,5-b]pyrazin-2(3H)-one], the concentration for half-maximal inhibition (IC50) was more than 1000 nM.
Regarding `COc1cc(-c2cnc3[nH]c(=S)n(CC4CC4)c3n2)cc(OC)c1OC` [Example 127, 1-(cyclopropylmethyl)-6-(3,4,5-trimethoxyphenyl)-1H-imidazo[4,5-b]pyrazine-2(3H)-thione], the IC50 was more than 1000 nM.
The result for `CC(=O)N1CCN(Cc2ccc(-c3cnc4[nH]cc(-c5ccc6[nH]ccc6c5)c4c3)cc2)CC1C` (stereo not shown) [Example 197, 1-(4-(4-(3-(1H-indol-5-yl)-1H-pyrrolo[2,3-b]pyridin-5-yl)benzyl)-2-methylpiperazin-1-yl)ethanone] reads less than 100 nM; that for `COc1ccc(-n2c(=O)[nH]c3ncc(-c4ccc(OC)c(OC)c4)nc32)cc1` [Example 69, 6-(3,4-dimethoxyphenyl)-1-(4-methoxyphenyl)-1H-imidazo[4,5-b]pyrazin-2(3H)-one], more than 1000 nM.
On to `CN1CCN(Cc2cccc(-c3cnc4[nH]cc(-c5ccc6[nH]ccc6c5)c4c3)c2)CC1=O` [Example 143, 4-{3-[3-(1H-indol-5-yl)-1H-pyrrolo[2,3-b]pyridin-5-yl]-benzyl}-1-methyl-piperazin-2-one], for which the IC50 is less than 100 nM.
The result for `Cc1cc2cc(-n3c(=O)[nH]c4ncc(-c5ccncc5)nc43)ccc2[nH]1` [Example 85, 1-(2-methyl-1H-indol-5-yl)-6-(pyridin-4-yl)-1H-imidazo[4,5-b]pyrazin-2(3H)-one] reads more than 1000 nM; that for `COc1cc(-c2cnc3[nH]cc(-c4ccc5[nH]ccc5c4)c3c2)ccc1N` [Example 5, 4-(3-(1H-indol-5-yl)-1H-pyrrolo[2,3-b]pyridin-5-yl)-2-methoxyaniline], less than 100 nM; that for `COc1ccc(-c2cnc3[nH]cc(-c4ccc(C(N)=O)cc4)c3c2)cc1OC` [Example 26, 4-(5-(3,4-dimethoxyphenyl)-1H-pyrrolo[2,3-b]pyridin-3-yl)benzamide], less than 100 nM.
The result for `c1cn(Cc2ccc(-c3cnc4[nH]cc(-c5ccc6[nH]ccc6c5)c4c3)cc2)cn1` [Example 199, 5-(4-((1H-imidazol-1-yl)methyl)phenyl)-3-(1H-indol-5-yl)-1H-pyrrolo[2,3-b]pyridine] reads less than 100 nM; that for `CCOC(=O)N1CCN(Cc2ccc(-c3cnc4[nH]cc(-c5ccc6[nH]ccc6c5)c4c3)cc2)CC1` [Example 183], less than 100 nM.
For the compound `CCC(=O)N1CCN(Cc2ccc(-c3cnc4[nH]cc(-c5ccc6[nH]ccc6c5)c4c3)cc2)CC1` [Example 187], the IC50 was less than 100 nM.
Next, `O=C1CCC(C(=O)N2CCN(Cc3ccc(-c4cnc5[nH]cc(-c6ccc7[nH]ccc7c6)c5c4)cc3)CC2)N1` (stereo not shown) [Example 195]: less than 100 nM; `Cc1cc(C)cc(-c2cnc3[nH]c(=O)n(-c4ccc5cn[nH]c5c4)c3n2)c1` [Example 95, 6-(3,5-dimethylphenyl)-1-(1H-indazol-6-yl)-1H-imidazo[4,5-b]pyrazin-2(3H)-one]: more than 1000 nM.
Next, `O=c1[nH]c2ncc(-c3ccc(N4CCOCC4)cc3)nc2n1-c1ccc2scnc2c1` [Example 100, 1-(benzo[d]thiazol-5-yl)-6-(4-morpholinophenyl)-1H-imidazo[4,5-b]pyrazin-2(3H)-one]: more than 1000 nM.
The result for `CN1CCN(c2cc(-c3cnc4[nH]cc(-c5ccc6[nH]ccc6c5)c4c3)ccn2)CC1` [Example 7, 3-(1H-indol-5-yl)-5-(2-(4-methylpiperazin-1-yl)pyridin-4-yl)-1H-pyrrolo[2,3-b]pyridine] reads less than 100 nM.
Take `O=c1[nH]c2ncc(-c3ccncc3)nc2n1C1CCCC1` [Example 77, 1-cyclopentyl-6-(pyridin-4-yl)-1H-imidazo[4,5-b]pyrazin-2(3H)-one]: the IC50 is more than 1000 nM.

What is called IC50 is the point on the concentration scale where inhibition reaches its midpoint.
